From patent publication US11981658B2, “Substituted aminopyridine compounds as EGFR inhibitors” (YUHAN CORPORATION, priority 2021, dated 2024)
Read-outs that look alike come from different tables or passages of the source.

Experiments:
[1] = target: EGFR wildtype (WT) (Homo sapiens, UniProt P00533); assay: Biochemical EGFR kinase inhibition assay (Lance Ultra TR-FRET), wildtype
In short: (§1)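 Step 1: compound in kinase buffer, 0.003–10 μM. Step 2: kinase reaction 1 h at room temperature. Step 4: TR-FRET read at 615/665 nm; IC50 calculated.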

[2] = target: EGFR Del19/T790M/C797S (Homo sapiens, UniProt P00533, C797S/DEL746-750/T790M); assay: Biochemical EGFR kinase inhibition assay (Lance Ultra TR-FRET), triple mutant del19/T790M/C797S
Sequence of EGFR Del19/T790M/C797S (P00533 with tags, fused parts or gaps DEL746-750/T790M/C797S): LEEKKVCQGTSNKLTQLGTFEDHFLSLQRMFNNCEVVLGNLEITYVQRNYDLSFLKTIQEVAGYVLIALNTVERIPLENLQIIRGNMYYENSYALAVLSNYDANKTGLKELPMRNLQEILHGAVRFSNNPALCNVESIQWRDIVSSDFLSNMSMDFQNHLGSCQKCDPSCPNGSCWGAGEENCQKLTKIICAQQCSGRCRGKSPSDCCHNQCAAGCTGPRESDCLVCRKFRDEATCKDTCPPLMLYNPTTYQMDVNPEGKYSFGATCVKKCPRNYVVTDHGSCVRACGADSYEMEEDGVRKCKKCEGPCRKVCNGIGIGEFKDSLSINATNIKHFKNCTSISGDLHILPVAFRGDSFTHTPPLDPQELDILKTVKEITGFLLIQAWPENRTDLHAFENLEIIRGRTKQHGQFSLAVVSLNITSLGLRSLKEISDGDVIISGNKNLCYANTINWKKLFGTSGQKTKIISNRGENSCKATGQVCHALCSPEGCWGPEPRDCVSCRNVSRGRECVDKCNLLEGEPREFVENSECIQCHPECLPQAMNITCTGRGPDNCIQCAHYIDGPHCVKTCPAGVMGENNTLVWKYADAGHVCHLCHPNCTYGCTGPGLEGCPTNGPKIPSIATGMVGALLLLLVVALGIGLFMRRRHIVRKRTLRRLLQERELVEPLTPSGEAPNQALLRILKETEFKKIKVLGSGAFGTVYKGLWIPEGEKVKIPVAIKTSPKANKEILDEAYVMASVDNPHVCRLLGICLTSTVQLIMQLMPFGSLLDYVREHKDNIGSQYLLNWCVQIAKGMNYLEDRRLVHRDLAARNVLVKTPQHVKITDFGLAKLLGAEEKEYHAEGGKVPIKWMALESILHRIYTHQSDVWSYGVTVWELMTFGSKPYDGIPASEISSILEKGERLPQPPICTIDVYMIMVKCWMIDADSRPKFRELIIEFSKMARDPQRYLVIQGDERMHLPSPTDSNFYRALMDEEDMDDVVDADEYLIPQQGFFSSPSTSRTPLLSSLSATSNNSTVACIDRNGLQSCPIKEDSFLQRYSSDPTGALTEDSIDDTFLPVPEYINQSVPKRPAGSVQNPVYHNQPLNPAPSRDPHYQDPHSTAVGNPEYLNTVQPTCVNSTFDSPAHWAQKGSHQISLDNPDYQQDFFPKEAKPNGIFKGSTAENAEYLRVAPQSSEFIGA
In short: as §1

[3] = target: EGFR L858R/C797S (Homo sapiens, UniProt P00533, C797S/L858R); assay: Biochemical EGFR kinase inhibition assay (Lance Ultra TR-FRET), double mutant L858R/C797S
Sequence of EGFR L858R/C797S (P00533 25-1210 C797S/L858R): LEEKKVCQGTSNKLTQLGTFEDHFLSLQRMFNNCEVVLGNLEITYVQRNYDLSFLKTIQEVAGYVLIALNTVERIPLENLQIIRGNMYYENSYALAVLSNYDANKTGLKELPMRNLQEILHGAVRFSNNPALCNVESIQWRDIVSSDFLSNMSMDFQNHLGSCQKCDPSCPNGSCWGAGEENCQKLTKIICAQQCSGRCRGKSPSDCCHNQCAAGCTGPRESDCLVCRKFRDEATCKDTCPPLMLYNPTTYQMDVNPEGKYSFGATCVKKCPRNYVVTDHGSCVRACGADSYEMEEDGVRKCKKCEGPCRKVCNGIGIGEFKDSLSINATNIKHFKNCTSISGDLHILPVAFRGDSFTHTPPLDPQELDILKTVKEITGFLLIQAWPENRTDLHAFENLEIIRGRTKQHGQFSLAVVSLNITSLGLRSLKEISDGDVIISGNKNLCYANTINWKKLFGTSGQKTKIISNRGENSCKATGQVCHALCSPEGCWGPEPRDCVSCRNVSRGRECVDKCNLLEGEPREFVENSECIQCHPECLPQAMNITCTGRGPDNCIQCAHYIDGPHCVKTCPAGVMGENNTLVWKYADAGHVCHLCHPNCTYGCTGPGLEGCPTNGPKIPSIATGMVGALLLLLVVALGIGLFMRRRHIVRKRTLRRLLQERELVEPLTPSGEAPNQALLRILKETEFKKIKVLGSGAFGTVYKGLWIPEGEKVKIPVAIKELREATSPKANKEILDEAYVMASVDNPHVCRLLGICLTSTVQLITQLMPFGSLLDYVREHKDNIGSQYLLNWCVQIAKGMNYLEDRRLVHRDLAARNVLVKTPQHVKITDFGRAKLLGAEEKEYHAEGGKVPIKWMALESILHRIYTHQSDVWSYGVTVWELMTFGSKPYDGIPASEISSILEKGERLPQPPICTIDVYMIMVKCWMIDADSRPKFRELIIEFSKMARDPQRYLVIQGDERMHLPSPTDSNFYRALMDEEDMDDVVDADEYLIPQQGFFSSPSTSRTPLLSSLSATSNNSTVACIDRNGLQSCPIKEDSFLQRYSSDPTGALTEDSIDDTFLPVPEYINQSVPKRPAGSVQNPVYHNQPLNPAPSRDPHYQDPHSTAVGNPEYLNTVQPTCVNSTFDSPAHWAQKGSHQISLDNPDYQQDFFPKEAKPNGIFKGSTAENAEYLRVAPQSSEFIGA
In short: as §1

[4] = target: EGFR Del19/C797S (Homo sapiens, UniProt P00533, C797S/DEL746-750); assay: Biochemical EGFR kinase inhibition assay (Lance Ultra TR-FRET), double mutant del19/C797S
Sequence of EGFR Del19/C797S (P00533 with tags, fused parts or gaps DEL746-750/C797S): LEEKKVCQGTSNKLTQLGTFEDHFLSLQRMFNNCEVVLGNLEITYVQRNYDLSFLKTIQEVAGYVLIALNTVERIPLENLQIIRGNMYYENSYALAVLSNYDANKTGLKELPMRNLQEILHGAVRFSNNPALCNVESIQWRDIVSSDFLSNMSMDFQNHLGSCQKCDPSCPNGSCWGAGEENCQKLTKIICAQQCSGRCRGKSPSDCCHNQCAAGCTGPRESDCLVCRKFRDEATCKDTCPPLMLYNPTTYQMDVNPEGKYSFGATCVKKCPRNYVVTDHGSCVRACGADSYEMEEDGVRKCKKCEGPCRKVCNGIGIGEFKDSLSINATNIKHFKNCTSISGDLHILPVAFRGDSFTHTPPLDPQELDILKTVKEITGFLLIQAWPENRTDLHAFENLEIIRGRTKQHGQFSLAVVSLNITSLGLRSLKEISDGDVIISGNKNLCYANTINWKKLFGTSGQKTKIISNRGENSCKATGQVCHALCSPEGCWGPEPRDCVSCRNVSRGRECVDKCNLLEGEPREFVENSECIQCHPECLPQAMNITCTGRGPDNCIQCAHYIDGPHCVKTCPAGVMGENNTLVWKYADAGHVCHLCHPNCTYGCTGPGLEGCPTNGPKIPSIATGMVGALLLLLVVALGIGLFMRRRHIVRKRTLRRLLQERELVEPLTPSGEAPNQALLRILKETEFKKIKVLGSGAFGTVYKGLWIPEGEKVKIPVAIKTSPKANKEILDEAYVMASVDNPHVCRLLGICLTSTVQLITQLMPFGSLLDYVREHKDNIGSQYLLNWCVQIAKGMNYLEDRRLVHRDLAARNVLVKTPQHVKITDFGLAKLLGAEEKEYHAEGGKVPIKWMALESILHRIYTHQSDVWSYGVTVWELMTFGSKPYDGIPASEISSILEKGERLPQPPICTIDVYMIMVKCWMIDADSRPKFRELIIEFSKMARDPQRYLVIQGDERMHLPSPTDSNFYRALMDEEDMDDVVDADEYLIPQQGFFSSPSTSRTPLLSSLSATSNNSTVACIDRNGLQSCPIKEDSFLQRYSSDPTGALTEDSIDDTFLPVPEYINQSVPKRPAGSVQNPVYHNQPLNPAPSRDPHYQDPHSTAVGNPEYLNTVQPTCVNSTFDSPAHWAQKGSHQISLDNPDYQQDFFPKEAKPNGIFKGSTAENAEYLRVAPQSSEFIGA
In short: as §1

[5] = target: EGFR L858R/T790M/C797S (Homo sapiens, UniProt P00533, C797S/L858R/T790M); assay: Biochemical EGFR kinase inhibition assay (Lance Ultra TR-FRET), triple mutant L858R/T790M/C797S
In short: as §1

[6] = Km ATP, read-out: IC50 WT (nM) Km ATP
[7] = IC50 Del19/T790M/C797S (nM), 100 μM ATP
[8] = Km ATP, read-out: IC50 Del19/T790M/C797S (nM) Km ATP
[9] = IC50 L858R/C797S (nM), 100 μM ATP
[10] = Km ATP, read-out: IC50 L858R/C797S (nM) Km ATP
[11] = IC50 Del19/C797S (nM), 100 μM ATP
[12] = Km ATP, read-out: IC50 Del19/C797S (nM) Km ATP
[13] = IC50 L858R/T790M/C797S (nM), 100 μM ATP
[14] = Km ATP, read-out: IC50 L858R/T790M/C797S (nM) Km ATP

Sequence of EGFR wildtype (WT) (P00533 25-1210): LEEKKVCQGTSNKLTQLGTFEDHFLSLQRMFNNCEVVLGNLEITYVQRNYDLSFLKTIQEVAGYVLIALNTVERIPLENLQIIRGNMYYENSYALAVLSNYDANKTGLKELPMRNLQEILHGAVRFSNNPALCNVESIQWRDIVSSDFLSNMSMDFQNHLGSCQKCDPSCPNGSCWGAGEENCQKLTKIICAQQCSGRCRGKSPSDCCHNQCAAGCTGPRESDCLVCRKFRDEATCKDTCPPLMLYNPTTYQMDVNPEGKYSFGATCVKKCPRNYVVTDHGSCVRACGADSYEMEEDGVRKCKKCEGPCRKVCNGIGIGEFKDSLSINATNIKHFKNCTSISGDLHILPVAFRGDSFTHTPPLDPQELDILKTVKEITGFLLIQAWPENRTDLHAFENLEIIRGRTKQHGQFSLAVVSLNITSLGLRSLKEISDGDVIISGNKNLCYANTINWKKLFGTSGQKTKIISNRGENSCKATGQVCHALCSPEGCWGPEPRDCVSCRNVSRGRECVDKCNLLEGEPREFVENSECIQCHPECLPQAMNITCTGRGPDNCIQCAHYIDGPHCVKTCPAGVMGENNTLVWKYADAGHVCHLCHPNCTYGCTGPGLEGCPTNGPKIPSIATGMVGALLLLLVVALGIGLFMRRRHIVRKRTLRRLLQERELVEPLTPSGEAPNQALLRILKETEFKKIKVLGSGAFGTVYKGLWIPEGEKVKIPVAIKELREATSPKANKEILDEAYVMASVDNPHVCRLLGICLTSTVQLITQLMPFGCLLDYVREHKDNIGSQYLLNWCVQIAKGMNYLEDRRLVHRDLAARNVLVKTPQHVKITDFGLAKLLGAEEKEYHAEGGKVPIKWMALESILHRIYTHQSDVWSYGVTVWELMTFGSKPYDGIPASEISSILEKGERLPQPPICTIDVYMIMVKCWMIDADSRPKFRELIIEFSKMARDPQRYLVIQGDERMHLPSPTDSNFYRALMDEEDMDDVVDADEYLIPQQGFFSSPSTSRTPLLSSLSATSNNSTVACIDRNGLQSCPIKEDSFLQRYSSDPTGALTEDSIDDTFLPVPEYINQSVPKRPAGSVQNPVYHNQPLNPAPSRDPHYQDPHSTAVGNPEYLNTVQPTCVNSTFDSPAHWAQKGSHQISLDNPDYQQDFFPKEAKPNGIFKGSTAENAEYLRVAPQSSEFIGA

| Structure (SMILES) | IC50 ([1]; IC50 WT (nM), 100 μM ATP) | IC50 [1, 6] | IC50 [2, 7] | IC50 [2, 8] | IC50 [3, 9] | IC50 [3, 10] | IC50 [4, 11] | IC50 [4, 12] | IC50 [5, 13] | IC50 [5, 14] |
| --- | --- | --- | --- | --- | --- | --- | --- | --- | --- | --- |
| CC(=O)N1CCC(n2cc(C#Cc3cnc(Nc4ccnc(-c5cnn(S(=O)(=O)C6CC6)c5)n4)cc3N[C@H]3CC[C@@H](O)CC3)cn2)CC1 [Example 109, 1-(4-(4-((6-((2-(1-(Cyclopropylsulfonyl)-1H-pyrazol-4-yl)pyrimidin-4-yl)amino)-4-(((1 s, 4s)-4-hydroxycyclohexyl)amino)pyridin-3-yl)ethynyl)-1H-pyrazol-1-yl)piperidin-1-yl)ethan-1-one] | > 10000 nM | 10.4 nM | 1 nM | 0.9 nM | 9.1 nM | 1.6 nM | 3 nM | 2.3 nM | 1.4 nM | 0.7 nM |
| CC(=O)N1CCC(n2cc(C#Cc3cnc(Nc4ccnc(-c5cnn(S(=O)(=O)C6CC6)c5)n4)cc3N3CCC(C)(CO)CC3)cn2)CC1 [Example 110, 1-(4-(4-((6-((2-(1-(Cyclopropylsulfonyl)-1H-pyrazol-4-yl)pyrimidin-4-yl)amino)-4-(4-(hydroxymethyl)-4-methylpiperidin-1-yl)pyridin-3-yl)ethynyl)-1H-pyrazol-1-yl)piperidin-1-yl)ethan-1-one] | 296 nM | 2.8 nM | 1.2 nM | 1.1 nM | 2.7 nM | 0.8 nM | 1.7 nM | 1.8 nM | 1.3 nM | 0.6 nM |
| CC(=O)N1CCC(n2cc(C#Cc3cnc(Nc4ccnc(-c5cnn(S(=O)(=O)C6CC6)c5)n4)cc3N3CCC(F)(CO)CC3)cn2)CC1 [Example 111, 1-(4-(4-((6-((2-(1-(Cyclopropylsulfonyl)-1H-pyrazol-4-yl)pyrimidin-4-yl)amino)-4-(4-fluoro-4-(hydroxymethyl)piperidin-1-yl)pyridin-3-yl)ethynyl)-1H-pyrazol-1-yl)piperidin-1-yl)ethan-1-one] | 4380 nM | 6 nM | 0.9 nM | 0.8 nM | 4.7 nM | 1.2 nM | 2 nM | 2 nM | 1.3 nM | 0.5 nM |
| CC(=O)N1CCC(n2cc(C#Cc3cnc(Nc4ccnc(-c5cnn(S(=O)(=O)C6CC6)c5)n4)cc3N3CCC(F)CC3)cn2)CC1 [Example 112, 1-(4-(4-((6-((2-(1-(Cyclopropylsulfonyl)-1H-pyrazol-4-yl)pyrimidin-4-yl)amino)-4-(4-fluoropiperidin-1-yl)pyridin-3-yl)ethynyl)-1H-pyrazol-1-yl)piperidin-1-yl)ethan-1-one] | > 10000 nM | 21.3 nM | 1.5 nM | 1.5 nM | 17.1 nM | 2.8 nM | 5.2 nM | 4.6 nM | 2.8 nM | 1.1 nM |
| COC1CCN(c2cc(Nc3ccnc(-c4cnn(S(=O)(=O)C5CC5)c4)n3)ncc2C#Cc2cnn(C3CCN(C(C)=O)CC3)c2)CC1 [Example 113, 1-(4-(4-((6-((2-(1-(Cyclopropylsulfonyl)-1H-pyrazol-4-yl)pyrimidin-4-yl)amino)-4-(4-methoxypiperidin-1-yl)pyridin-3-yl)ethynyl)-1H-pyrazol-1-yl)piperidin-1-yl)ethan-1-one] | 7550 nM | 12 nM | 1.3 nM | 1.3 nM | 11.3 nM | 2.6 nM | 4 nM | 3.2 nM | 2.9 nM | 0.8 nM |
| CC(=O)N1CCC(n2cc(C#Cc3cnc(Nc4ccnc(-c5cnn(S(=O)(=O)C6CC6)c5)n4)cc3N3CCCC(O)C3)cn2)CC1 (stereo not drawn) [Example 114, 1-(4-(4-((6-((2-(1-(Cyclopropylsulfonyl)-1H-pyrazol-4-yl)pyrimidin-4-yl)amino)-4-(3-hydroxypiperidin-1-yl)pyridin-3-yl)ethynyl)-1H-pyrazol-1-yl)piperidin-1-yl)ethan-1-one] | > 10000 nM | 17.4 nM | 0.5 nM | 0.5 nM | 13.7 nM | 2.6 nM | 9.5 nM | 5.4 nM | 1.7 nM | 0.6 nM |
